Source: patent US9688684B2, “Substituted tetrazolo[1,5-a]pyrazines as ROR-gamma inhibitors” (Merck Patent GmbH, priority 2013, dated 2017)

Columns and labels:
[1] = biological target: human RORγ ligand binding domain (GST-hRORγ-LBD) (Homo sapiens (Human), UniProt P51449); experiment: TR-FRET assay (biochemical cofactor interaction assay, GST-hRORγ-LBD / TRAP220 peptide)
Source text: RORγ is an orphan member of the nuclear receptor (NR) family displaying constitutive activity. The activity of nuclear receptors can be modulated by ligand-induced cofactor protein interactions. For example, agonist binding leads to recruitment of coactivator protein, and antagonist binding either blocks coactivator interaction or facilitates the recruitment of corepressors. […] The conformational change induced by ligand binding influences interactions with LXXLL motif peptides.
RORγ (t) is a thymus-specific isoform of RORγ which is widely expressed. It shares the same ligand binding domain (LBD) sequence with RORγ. Thus, a screen using the LBD will yield antagonists targeting both RORγ and RORγt.
In order to identify compounds which block activity of the human nuclear receptor Retinoid-related Orphan Receptor gamma (RORγ) a biochemical cofactor interaction assay based on the TR-FRET principle is performed. […] The ligand-binding domain (LBD) of RORγ is expressed as fusion protein with GST in […] cells using the vector pDEST15. Cells are lysed by lysozyme-treatment and sonication, and the fusion proteins purified over glutathione sepharose (Pharmacia) according to the manufacturers instructions. The strong constitutive interaction is disrupted upon binding of functional antagonists. The strength of the interaction is monitored by TR-FRET between streptavidine APC interacting with the biotinylated peptide and Europium-labelled Anti-GST.

[2] = biological target: RORγ Ligand binding domain (RORγ-LBD, aa 238-497, NP_001001523) (Homo sapiens (Human), UniProt P51449); experiment: ROR γ GAI4 Reporter Gene Assay (Mammalian one-hybrid, M1H) in 293T cells; assay type: cell-based
Source text: ROR γ GAI4 Reporter Gene Assay
A Mammalian one-hybrid system is used to perform a cell-based functional transactivation assay for detecting RORγ activity modulators.
The Mammalian-1-Hybrid is derived from the Mammalian-2-Hybrid setup. Whereas in the latter, the binding partners are defined in their role as interaction, transactivation and DNA-binding components, the Mammalian-1-Hybrid makes use of the fact that all mammalian cell types express a set of Nuclear Receptors and their associated cofactors. […] A Gal4 minimal promoter driven luciferase construct (pFR-Luc from Stratagene, containing a synthetic promoter with five tandem repeats of the yeast GAL4 binding sites controlling expression of the Photinus pyralis luciferase gene) is used as reporter. The Gal4-DBD-NR-LBD fusion protein by itself cannot initiate transcription and is dependent on the presence of cofactors present in the cellular system used.
In order to rule out cytotoxic and unspecific transcriptional compound effects a transfection with a firefly luciferase driven by the constitutive CMV promoter is performed in parallel.
After transfection 18 μl complete MEM medium containing 3% charcoal-dextran treated FBS is added as well as 4 μl test compounds (DMSO stocks prediluted in OptiMem (Invitrogen)) followed by incubation for 16-24 h at 37° C., 5% CO2 and 90% rH.
Firefly luciferase activity is measured using the Promega ONE-Glo™ Luciferase Assay System.

Sequence of RORγ Ligand binding domain (RORγ-LBD, aa 238-497, NP_001001523) (P51449 259-518): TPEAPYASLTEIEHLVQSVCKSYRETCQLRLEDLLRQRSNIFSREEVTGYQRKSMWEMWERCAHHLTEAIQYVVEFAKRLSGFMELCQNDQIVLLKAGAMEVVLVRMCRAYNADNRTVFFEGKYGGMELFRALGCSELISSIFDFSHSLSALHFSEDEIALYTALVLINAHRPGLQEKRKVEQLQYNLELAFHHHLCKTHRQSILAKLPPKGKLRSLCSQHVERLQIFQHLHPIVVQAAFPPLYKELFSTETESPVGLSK
Sequence of human RORγ ligand binding domain (GST-hRORγ-LBD) (P51449 269-508): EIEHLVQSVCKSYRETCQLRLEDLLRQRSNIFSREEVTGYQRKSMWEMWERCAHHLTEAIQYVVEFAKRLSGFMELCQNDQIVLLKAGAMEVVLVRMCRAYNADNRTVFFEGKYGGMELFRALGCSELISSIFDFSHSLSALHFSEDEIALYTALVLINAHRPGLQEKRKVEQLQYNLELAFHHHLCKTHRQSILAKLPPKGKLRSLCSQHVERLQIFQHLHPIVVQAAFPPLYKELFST

Compound | IC50 [1] [µM] | IC50 [2] [µM]
Fc1ccc(C2c3nnnn3CCN2Cc2cccc(Br)c2)cc1 (single isomer, unassigned) [Compound 96-a, 7-(3-Bromo-benzyl)-8-(4-fluoro-phenyl)-5,6,7,8-tetrahydro-tetrazolo[1,5-a]pyrazine] | 0.01 to 0.99 | 0.99 to 9.9
Fc1cccc(C2c3nnnn3CCN2Cc2cccc(Br)c2)c1 (stereo not shown) [Compound 163, 7-(3-Bromo-benzyl)-8-(3-fluoro-phenyl)-5,6,7,8-tetrahydro-tetrazolo[1,5-a]pyrazine] | 0.01 to 0.99 | 9.9 to 40
CC(C)c1nn(-c2ccccc2)cc1C1c2nnnn2CCN1C1CCCCC1 (stereo not shown) [Compound 114, 7-Cyclohexyl-8-(3-isopropyl-1-phenyl-1H-pyrazol-4-yl)-5,6,7,8-tetrahydro-tetrazolo[1,5-a]pyrazine] | 0.99 to 9.9 | 9.9 to 40
Fc1ccccc1C1c2nnnn2CCN1Cc1cccs1 (stereo not shown) [Compound 137, 8-(2-Fluoro-phenyl)-7-thiophen-2-ylmethyl-5,6,7,8-tetrahydro-tetrazolo[1,5-a]pyrazine] | 0.99 to 9.9 | 9.9 to 40
Fc1ccc(CN2CCn3nnnc3C2c2cccc(F)c2)cc1 (single isomer, unassigned) [Compound 91-b, 7-(4-Fluoro-benzyl)-8-(3-fluoro-phenyl)-5,6,7,8-tetrahydro-tetrazolo[1,5-a]pyrazine] | 0.99 to 9.9 | 0.99 to 9.9
CC(C)c1nn(-c2ccccc2)cc1CN1CCn2nnnc2C1c1cccs1 (stereo not shown) [Compound 48, 7-(3-Isopropyl-1-phenyl-1H-pyrazol-4-ylmethyl)-8-thiophen-2-yl-5,6,7,8-tetrahydro-tetrazolo[1,5-a]pyrazine] | 0.01 to 0.99 | 9.9 to 40
Fc1cccc(C2c3nnnn3CCN2Cc2cccs2)c1 (stereo not shown) [Compound 117, 8-(3-Fluoro-phenyl)-7-thiophen-2-ylmethyl-5,6,7,8-tetrahydro-tetrazolo[1,5-a]pyrazine] | 0.99 to 9.9 | 9.9 to 40
Clc1ccc(C2c3nnnn3CCN2Cc2cccs2)cc1 (stereo not shown) [Compound 106, 8-(4-Chloro-phenyl)-7-thiophen-2-ylmethyl-5,6,7,8-tetrahydro-tetrazolo[1,5-a]pyrazine] | 0.01 to 0.99 | 9.9 to 40
COc1ccc(C2c3nnnn3CCN2Cc2cn(-c3ccccc3)nc2C(C)C)cc1 (stereo not shown) [Compound 5, 7-(3-Isopropyl-1-phenyl-1H-pyrazol-4-ylmethyl)-8-(4-methoxy-phenyl)-5,6,7,8-tetrahydro-tetrazolo[1,5-a]pyrazine] | 9.9 to 40 | –
Fc1ccc(C2c3nnnn3CCN2Cc2cccc(Br)c2)cc1 (single isomer, unassigned) [Compound 96-b, 7-(3-Bromo-benzyl)-8-(4-fluoro-phenyl)-5,6,7,8-tetrahydro-tetrazolo[1,5-a]pyrazine] | 9.9 to 40 | –
CN(C)c1ccc(C2c3nnnn3CCN2Cc2cccc(F)c2F)cc1 (stereo not shown) [Compound 20, {4-[7-(2,3-Difluoro-benzyl)-5,6,7,8-tetrahydro-tetrazolo[1,5-a]pyrazin-8-yl]-phenyl}-dimethyl-amine] | 9.9 to 40 | –
Fc1cccc(CN2CCn3nnnc3C2c2cccc(F)c2F)c1F (stereo not shown) [Compound 79, 7-(2,3-Difluoro-benzyl)-8-(2,3-difluoro-phenyl)-5,6,7,8-tetrahydro-tetrazolo[1,5-a]pyrazine] | 9.9 to 40 | –
CCOc1ccc(C2c3nnnn3CCN2Cc2cccc(F)c2F)cc1 (stereo not shown) [Compound 45, 7-(2,3-Difluoro-benzyl)-8-(4-ethoxy-phenyl)-5,6,7,8-tetrahydro-tetrazolo[1,5-a]pyrazine] | 9.9 to 40 | –
CC(C)c1nn(-c2ccccc2)cc1C1c2nnnn2CCN1Cc1ccn[nH]1 (stereo not shown) [Compound 153, 8-(3-Isopropyl-1-phenyl-1H-pyrazol-4-yl)-7-(2H-pyrazol-3-ylmethyl)-5,6,7,8-tetrahydro-tetrazolo[1,5-a]pyrazine] | 9.9 to 40 | –
CCOc1ccc(C2c3nnnn3CCN2Cc2cn(-c3ccccc3)nc2C(C)C)cc1 (stereo not shown) [Compound 43, 8-(4-Ethoxy-phenyl)-7-(3-isopropyl-1-phenyl-1H-pyrazol-4-ylmethyl)-5,6,7,8-tetrahydro-tetrazolo[1,5-a]pyrazine] | 9.9 to 40 | –
CN(C)c1ccc(C2c3nnnn3CCN2CC2CCCCC2)cc1 (stereo not shown) [Compound 19, [4-(7-Cyclohexylmethyl-5,6,7,8-tetrahydro-tetrazolo[1,5-a]pyrazin-8-yl)-phenyl]-dimethyl-amine] | 9.9 to 40 | –
7-Benzyl-8-(4-ethyl-phenyl-1H-pyrazol-4-yl)-5,6,7,8-tetrahydro-tetrazolo[1,5-a]pyrazine [Compound 152] | 9.9 to 40 | –
C1CCC(CN2CCn3nnnc3C2C2CCCCC2)CC1 (stereo not shown) [Compound 69, 8-Cyclohexyl-7-cyclohexylmethyl-5,6,7,8-tetrahydro-tetrazolo[1,5-a]pyrazine] | 9.9 to 40 | –
CCOc1ccc(C2c3nnnn3CCN2CC2CCCCC2)cc1 (stereo not shown) [Compound 44, 7-Cyclohexylmethyl-8-(4-ethoxy-phenyl)-5,6,7,8-tetrahydro-tetrazolo[1,5-a]pyrazine] | 9.9 to 40 | –

The next lines start with results.

IC50 [1] [µM] | Compound | IC50 [2] [µM]
9.9 to 40 | c1csc(CN2CCn3nnnc3C2c2cccs2)c1 (stereo not shown) [Compound 47, 8-Thiophen-2-yl-7-thiophen-2-ylmethyl-5,6,7,8-tetrahydro-tetrazolo[1,5-a]pyrazine] | –
9.9 to 40 | Cc1cccc(C2c3nnnn3CCN2Cc2cn(-c3ccccc3)nc2C(C)C)c1 (stereo not shown) [Compound 27, 7-(3-Isopropyl-1-phenyl-1H-pyrazol-4-ylmethyl)-8-m-tolyl-5,6,7,8-tetrahydro-tetrazolo[1,5-a]pyrazine] | –
9.9 to 40 | Fc1ccc(F)c(C2c3nnnn3CCN2Cc2cccc(F)c2F)c1 (stereo not shown) [Compound 35, 7-(2,3-Difluoro-benzyl)-8-(2,5-difluoro-phenyl)-5,6,7,8-tetrahydro-tetrazolo[1,5-a]pyrazine] | –
9.9 to 40 | Cc1cccc(CN2CCn3nnnc3C2c2ccncc2)c1 (stereo not shown) [Compound 87, 7-(3-Methyl-benzyl)-8-pyridin-4-yl-5,6,7,8-tetrahydro-tetrazolo[1,5-a]pyrazine] | –
9.9 to 40 | CC(C)Oc1ccc(CN2CCn3nnnc3C2C2CCCCC2)cc1 (stereo not shown) [Compound 64, 8-Cyclohexyl-7-(4-isopropoxy-benzyl)-5,6,7,8-tetrahydro-tetrazolo[1,5-a]pyrazine] | –
9.9 to 40 | CC(C)c1nn(-c2ccccc2)cc1CN1CCn2nnnc2C1c1ccc(F)cc1 (stereo not shown) [Compound 11, 8-(4-Fluoro-phenyl)-7-(3-isopropyl-1-phenyl-1H-pyrazol-4-ylmethyl)-5,6,7,8-tetrahydro-tetrazolo[1,5-a]pyrazine] | –
9.9 to 40 | CC(C)c1nn(-c2ccccc2)cc1CN1CCn2nnnc2C1c1ccc2c(c1)OCO2 (stereo not shown) [Compound 29, 8-Benzo[1,3]dioxol-5-yl-7-(3-isopropyl-1-phenyl-1H-pyrazol-4-ylmethyl)-5,6,7,8-tetrahydro-tetrazolo[1,5-a]pyrazine] | –
9.9 to 40 | Cc1cccc(CN2CCn3nnnc3C2c2ccccn2)c1 (stereo not shown) [Compound 86, 7-(3-Methyl-benzyl)-8-pyridin-2-yl-5,6,7,8-tetrahydro-tetrazolo[1,5-a]pyrazine] | –
9.9 to 40 | Cn1ccc(CN2CCn3nnnc3C2c2ccc(F)cc2)n1 (stereo not shown) [Compound 85, 8-(4-Fluoro-phenyl)-7-(1-methyl-1H-pyrazol-3-ylmethyl)-5,6,7,8-tetrahydro-tetrazolo[1,5-a]pyrazine] | –
9.9 to 40 | Brc1cccc(CN2CCn3nnnc3C2c2cccc(Br)c2)c1 (stereo not shown) [Compound 6, 7-(3-Bromo-benzyl)-8-(3-bromo-phenyl)-5,6,7,8-tetrahydro-tetrazolo[1,5-a]pyrazine] | –
9.9 to 40 | COc1ccc(CN2CCn3nnnc3C2c2ccccc2F)cc1 (stereo not shown) [Compound 22, 8-(2-Fluoro-phenyl)-7-(4-methoxy-benzyl)-5,6,7,8-tetrahydro-tetrazolo[1,5-a]pyrazine] | –
9.9 to 40 | CN(C)c1ccc(CN2CCn3nnnc3C2C2CCCCC2)cc1 (stereo not shown) [Compound 66, [4-(8-Cyclohexyl-5,6-dihydro-8H-tetrazolo[1,5-a]pyrazin-7-ylmethyl)-phenyl]-dimethyl-amine] | –
9.9 to 40 | CC(C)c1nn(-c2ccccc2)cc1CN1CCn2nnnc2C1c1cn(-c2ccccc2)nc1C(C)C (stereo not shown) [Compound 62, 8-(3-Isopropyl-1-phenyl-1H-pyrazol-4-yl)-7-(3-isopropyl-1-phenyl-1H-pyrazol-4-ylmethyl)-5,6,7,8-tetrahydro-tetrazolo[1,5-a]pyrazine] | –
